According to patent publication US20260306500A1, “METHOD OF INHIBITING ADENOSINE TRIPHOSPHATE SECRETION, METHOD OF INHIBITING HEPATIC STELLATE CELL ACTIVATION, METHOD OF DEACTIVATING HEPATIC STELLATE CELL, METHOD OF TREATING HEPATIC FIBROSIS, METHOD OF TREATING NON-ALCOHOLIC STEATOHEPATITIS, AND METHOD OF TREATING PSORIASIS” (Kurume University, priority 2023, published 2026):

Key:
LX-2 cells = assay: ATP secretion from LX-2 cells; assay type: cell-based, human
Protocol: Cells of the immortalized human hepatic stellate cell line LX-2 (manufactured by Merck) was cultured in Dulbecco's modified Eagle's medium (DMEM, 4500 mg/l Glucose, D5796, manufactured by Sigma-Aldrich) supplemented with inactivated 2% fetal bovine serum (FBS), 10 IU/ml penicillin, and 10 IU/ml streptomycin in a T25 or T75 flask at 37° C. in 5% CO2.
LX-2 cells (2×10^6 cells per well) were seeded in a collagen-coated 6-well culture dish containing Dulbecco's modified Eagle's medium (manufactured by Sigma-Aldrich) supplemented with 10 IU/ml penicillin, […] 2% fetal bovine serum, and cultured in 5% CO2 at 37° C. After 3 days, the LX-2 cells were washed twice and preincubated in Krebs-Ringer buffer (10 mM HEPES-Tris, pH 7.4, 128 mM NaCl, 1.9 mM KCl, 1.2 mM KH2PO4, 1.3 mM MgSO4, 26 mM NaHCO3, 2.4 mM CaCl2, 10 mM glucose, 0.2% (w/v) bovine serum albumin) with or without 10 μM clodronate. The LX-2 cells were then stimulated with Krebs-Ringer buffer supplemented with ionomycin (manufactured by Cayman) regardless of whether clodronate was present or not. For the stimulation, 1 mM EGTA (manufactured by Dojindo) or 10 μM serotonin (5-HT, manufactured by Sigma-Aldrich) was used. The ATP concentration in the culture supernatant was measured in the same manner as in Example 6.
For an siRNA experiment, a TriFECTa (trademark) RNAi Kit (manufactured by Integrated DNA Technologies) was used. A scramble RNA (scRNA) as a control siRNA, or a VNUT-specific siRNA, was incubated with Lipofectamine 3000 reagent (manufactured by Invitrogen) in OptiMEM reduced-serum medium (#31985070, manufactured by Gibco) at room temperature for 15 minutes, and then added directly to the cultured cells. The LX-2 cells as the transfection mixture were plated, and then cultured for 48 hours. The base sequences of VNUT siRNA forward and VNUT siRNA reverse, used for the above kit, are shown in SEQ ID NOs: 1 and 2, respectively. A positive control for an endogenous gene (#51-01-08-02) and a negative control (#51-01-14-03) were used.

[1] = tested on: chromaffin granule membrane; assay: ATP transport (uptake of radiolabeled ATP) in chromaffin granule membrane vesicles; assay type: biochemical, cattle; conditions: role: inhibitor, 1 mM 3H-ATP
Protocol: Chromaffin granule membranes were prepared from adrenal glands collected from slaughtered cattle according to Reference A (Nathan Nelson et al., 1988, Chromaffin Granule Proton Pump, Methods in Enzymology, 157, 619-633). Chromaffin granule membranes prepared by sucrose density gradient centrifugation were suspended in 2 ml of SME buffer (20 mM MOPS-tris (pH 7.0), 0.3 M sucrose, 5 mM EDTA, 10 μg/ml leupeptin, and 10 μg/ml pepstatin)+25% glycerol, and the resulting suspension was aliquoted and stored at −80° C. Under these conditions, the ATP transport activity, the V-ATPase activity, and the catecholamine transport activity remain fully active for at least one year.
An ATP transport inhibition experiment for the chromaffin granule membrane was carried out according to Reference B (Yoshinori Moriyama et al., 2022, Is the vesicular nucleotide transporter a molecular target of eicosapentaenoic acid?, Frontiers in Pharmacology, 103389). About 20 μg of chromaffin granule membranes were added to 0.5 ml of measurement buffer (20 mM MOPS-tris (pH 7.0), 0.3 M sucrose, 5 mM potassium chloride, 5 mM magnesium acetate, 5 mM creatine phosphate, 10 units of creatine kinase, and 1 mM 3[H]-ATP [15 KBq/assay]), followed by incubation at 30° C. for 1 hour. Through a Millipore MCE membrane filter with a pore size […], 0.2 ml of the reaction liquid was filtered by suction. Thereafter, the filter was washed with 10 ml of 20 mM MOPS-tris (pH 7.0), 0.3 M sucrose, 5 mM potassium chloride, and 5 mM magnesium acetate, and dissolved in 10 ml of Clear-sol II (manufactured by Nacalai Tesque, Inc.). The radioactivity was then measured using a liquid scintillation counter (N=3).
The reaction was initiated by adding 50 mM ^3[H]-ATP to a final concentration of 1 mM. The 50 mM ^3[H]-ATP was prepared by mixing an ATP-tris solution (manufactured by Sigma-Aldrich) with [2,8-^3H]adenosine triphosphate tetrasodium salt (26.0 Ci/mmol) (manufactured by New England Nuclear). PEP was used as a test reagent, and pyruvic acid was used as a negative control. Five minutes before the addition of ATP, PEP or pyruvic acid, as a solution in 20 mM MOPS-tris (pH 7.0), 0.3 M sucrose, 5 mM potassium chloride, and 5 mM magnesium acetate, was added to the measurement liquid to a final PEP concentration of 0.02, 0.05, 0.1, 0.2, 0.4, or 1 mM, or to a final pyruvic acid concentration of 0.5 or 1 mM.
Chromaffin granule membrane vesicles were prepared in the same manner as in Example 5, and uptake of radiolabeled ATP into the vesicles was measured. Transport activity of catecholamine (dopamine) and ATP-dependent proton transport by V-ATPase were also measured in the same manner as in Example 5.

[2] = tested on: human epidermal keratinocytes; assay: ATP secretion from human epidermal keratinocytes promoted by ionomycin; assay type: cell-based; conditions: 5 μM ionomycin as stimulant, keratinocytes
Protocol: Human epidermal keratinocytes (Cryopreserved HEK, Lot 1758, Cell Applications Inc.) were cultured using an Epivita Keratinocyte Growth Medium Kit according to the manufacturer's instructions. The procedure was as follows. A supplement medium was added to a hydrocortisone-containing basal medium included in the medium preparation kit to prepare a complete medium. The medium in the dish was removed by aspiration. The cells were washed with 5 ml of BSS (Gbco), and then the BSS was removed by aspiration. After addition of 5 to 6 ml of trypsin/EDTA solution (Gbco), the dish was incubated at 37° C. for 2 minutes. After addition of 5 ml of trypsin neutralization solution, the resulting cell suspension was transferred into two 15-ml Falcon tubes, and centrifuged at 200×g for 5 minutes. The supernatant was removed by aspiration, and the pelleted cell cluster was suspended in 2 ml of the medium at 4.5×10^5 cells/ml. An aliquot of the resulting cell suspension was cryopreserved, while another aliquot was cultured and subjected to measurement.
ATP secretion by human epidermal keratinocytes (hereinafter referred to as “keratinocytes”) was measured. Regarding control solutions, Krebs-Ringer HEPES supplemented with 0.2% BSA and 25 mM glucose (hereinafter also referred to as “Krebs/Iono(−)”) was used as a negative control, and a solution prepared by adding 5 μM ionomycin to this solution (hereinafter also referred to as “Krebs/Iono(+)”) was used as a positive control for ATP secretion. Ionomycin is a Ca^2+ ionophore. Addition of ionomycin to cells is known to promote influx of extracellular Ca^2+ into the cells to increase the intracellular Ca^2+ concentration, resulting in enhancement of ATP secretion. Test solutions were prepared by adding clodronate to Krebs/Iono(−) or Krebs/Iono(+) to a final concentration of 0.1 μM (hereinafter also referred to as “Clo/Iono(−)” or “Clo/Iono(+)”, respectively) (N=3).
Keratinocytes were cultured at 2.5×10^4 cells/well in a 24-well plate at 37° C. in 5% CO2 for 4 days. The medium was removed by aspiration, replaced with Krebs/Iono(−) or Clo/Iono(−), and incubated at 37° C. for 6 hours. These solutions were then removed by aspiration, and the content of each well incubated with Krebs/Iono(−) was replaced with 300 μl of a control solution (Krebs/Iono(−) or Krebs/Iono(+)), while the content of each well incubated with Clo/Iono(−) was replaced with 300 μl of a test solution (Clo/Iono(−) or Clo/Iono(+)). After further incubation at 37° C. for 20 minutes, 200 μl of the supernatant was collected. The collected supernatant was immediately treated on a heat block at 95° C. for 10 minutes, to inactivate ectonucleotidase. ATP in the supernatant was quantified using a Dojindo ATP assay kit−Luminescence (manufactured by Dojindo Laboratories).
Keratinocytes were cultured in the same manner as in Example 1, and ATP secretion from the keratinocytes was measured. Krebs/Iono(−), or a solution prepared by adding 10 μM imeglimin, 0.1 μM eicosapentaenoic acid (EPA), 1 μM EPA, or 10 μM clodronate to Krebs/Iono(−) was used (N=4).
After culturing keratinocytes, the medium was removed by aspiration, and replaced with Krebs/Iono(−), or Krebs/Iono(−) supplemented with 10 μM imeglimin, 0.1 μM EPA, 1 μM EPA, or 10 μM clodronate, followed by incubation for 6 hours. Subsequently, the solution was replaced with either a control solution (Krebs/Iono(−) or Krebs/Iono(+)) or a test solution (Krebs/Iono(+) supplemented with 10 μM imeglimin, 0.1 μM EPA, 1 μM EPA, or 10 μM clodronate), followed by incubation at 37° C. for 20 minutes and then collection of 200 μl of the supernatant. The collected supernatant was immediately treated on a heat block at 95° C. for 10 minutes to inactivate ectonucleotidase. ATP in the supernatant was quantified using a Dojindo ATP assay kit—Luminescence (manufactured by Dojindo Laboratories). […]

mouse auricle = assay: Imiquimod-induced psoriasis model, comparison with an anti-TNFα antibody (Example 19); assay type: in vivo; conditions: imeglimin 40 mg/kg oral daily or infliximab 100 μg/mouse i.v. Days 1, 3, 5
Protocol: The dorsal hair of mice was shaved and depilated (Day 0). To each of the left auricle and the depilated back of each mouse, 62.5 mg of 5% imiquimod cream (Beselna Cream 5%) was applied once daily a total of seven times (Days 1 to 7) in accordance with Example 18, to induce imiquimod-induced psoriasis (IMQ group). In the IMQ+IMG group, mice received oral administration of imeglimin (40 mg/kg) once daily (Day 1 to 7) after the imiquimod application. […] Thickness of the auricle was measured, and the degrees of erythema, desquamation, and infiltration in the affected area were rated on Days 1, 3, 5, 7, and 8 according to the PASI scoring of the DermNET Dermatology Resource (none: 0, mild: 1, moderate: 2, severe: 3, and very severe: 4). The resulting values were used to calculate the PASI score.
Further, for an auricle excised on Day 8, immunohistochemical staining was performed in the same manner as in Example 18, and auricular sections were imaged using a fluorescence microscope (BZ-X710; manufactured by Keyence Corporation).

Row | Molecule | inhibitory activity on ATP transport [1] | further results
1 | NCCc1c[nH]c2ccc(O)cc12 [5-HT, serotonin] |  | ATP secretion from the LX-2 cells (LX-2 cells; 10 μM serotonin (5-HT) (FIG. 25)): promoted ATP secretion
2 | O=C(O)CN(CCOCCOCCN(CC(=O)O)CC(=O)O)CC(=O)O [EGTA] |  | ionomycin-induced ATP secretion (LX-2 cells; 1 mM EGTA, chelating of Ca2+, N=6 (FIG. 21)): strongly inhibited
3 | C[C@H](O)C(=O)O [L-lactic acid] | no inhibitory activity was found | 
4 | NC(=O)c1ccc[n+]([C@@H]2O[C@H](COP(=O)([O-])OP(=O)(O)OC[C@H]3O[C@@H](n4cnc5c(N)ncnc54)[C@H](O)[C@@H]3O)[C@@H](O)[C@H]2O)c1 [NAD+] | no inhibitory activity was found | 
5 | CC(=O)SCCNC(=O)CCNC(=O)[C@H](O)C(C)(C)COP(=O)(O)OP(=O)(O)OC[C@H]1O[C@@H](n2cnc3c(N)ncnc32)[C@H](O)[C@@H]1OP(=O)(O)O [acetyl-CoA] | no inhibitory activity was found | 
6 | O=C(O)CC(O)(CC(=O)O)C(=O)O [citric acid] | no inhibitory activity was found | 
7 | O=C(CO)[C@@H](O)[C@H](O)[C@H](O)COP(=O)(O)O [fructose-6-phosphate] | no inhibitory activity was found | 
8 | O=C[C@H](O)[C@@H](O)[C@H](O)[C@H](O)COP(=O)(O)O [glucose-6-phosphate] | no inhibitory activity was found | 
9 | C[C@H](CCC(=O)O)C[C@H](C)C[C@H](C)C(=O)/C=C(\O)[C@H](C)C[C@H](C)C/C=C/[C@@H](C)[C@@H](O)[C@@H](C)[C@@H](O)C[C@@H]1CC[C@@](C)([C@H]2CC[C@@](C)([C@@H](C)O)O2)O1 [ionomycin] |  | ATP secretion [2]: promotes ATP secretion; secretion of ATP by the LX-2 cells over time (LX-2 cells; ionomycin, N=3 (FIG. 20)): increased secretion of ATP
10 | O=C(O)C[C@H](O)C(=O)O [malic acid] | no inhibitory activity was found | 
11 | O=C(O)CC(=O)C(=O)O [oxaloacetic acid] | no inhibitory activity was found | 
12 | CC(=O)C(=O)O [pyruvic acid] | no inhibitory activity was found | inhibition of ATP transport ([1]; up to 1 mM pyruvic acid): did not inhibit ATP transport
13 | infliximab: infliximab (manufactured by Nichi-Iko Pharmaceutical Co., Ltd.), an anti-TNFα antibody as an existing drug |  | erythema (excepted from the symptoms reduced) (mouse auricle; N=5 (FIG. 38)): except erythema; typical psoriatic symptoms induced by imiquimod, except erythema (thickness, desquamation, infiltration, PASI score) (mouse auricle; N=5 (FIGS. 37-41)): reduced
